Assays:
[1] = target: T1, recombinant CK2α1 kinase domain (Homo sapiens, UniProt P68400); experiment: Differential scanning fluorimetry (DSF); format: binding; settings: apo protein Tm 58°C
T1 construct: Amino acid residues 3-335 of CK2α1 were cloned using BamH1 and HindIII into pET28bsmt3-SUMO fusion vector; His6 (N, cleaved yes); SUMO (N, cleaved yes); made in house; host or cells: Escherichia coli BL21-DE3 (RIL)
Protocol: 1μM of in-house purified recombinant CK2α1 was diluted in protein buffer and added to a final concentration of 1X of Sypro Orange Dye in the presence of DMSO or increasing concentrations of ON108110. Following a 20 min incubation at room temperature, 20μl samples were pipetted into a clear MicroAmp Fast 96-well Reaction PCR plates and sealed with MicroAmp Optical Adhesive Film. The assay was performed using a StepOne Plus RT-PCR instrument (Applied Biosystems) using an increasing temperature gradient of 20 to 90°C in 0.2°C increments using a 200- millisecond stabilization delay. Florescence readings were acquired with excitation and emission wavelengths of 580±10 nm and 624±14 nm respectively. A customized analysis program (Step One Plus Protein Thermal Shift Software) was used to calculate the Tm from each fluorescence profile (Boltzmann method) and the Tm of the fluorescence (derivative method). Derivative Tm values were obtained from the top of the peak in the derivative plot, while the Boltzmann Tm values calculated from the inflection point of the fluorescence plot.

[2] = tested on: CDK4/6-specific RB phosphorylation in Granta-519 and CEM cells; experiment: Western blot of phosphorylated RB (Ser780 and Ser 807/811); format: cell-based, human; settings: increasing concentrations, 24 hours
Protocol: Figure 6 Inhibition of CK2/CDK4 mediated signaling by ON108110 (A) CEM and (B) Granta-519 cells were treated with increasing concentrations of ON 108110 for 24 hours. Whole cell extracts were subjected to western blot analysis using antibodies directed against the indicated proteins. GAPDH is shown as a loading control.
Cells were grown as indicated, lysed in lysis buffer (20mM Tris, pH 8.0/ 137mM NaCl/ 10% glycerol/ 1% NP-40) supplemented with 1X protease and phosphatase inhibitor cocktail on ice and resolved by SDS-PAGE. The proteins were transferred to a nitrocellulose membrane and subjected to Western blot analysis using the indicated antibodies. Proteins were visualized using an Odyssey imaging system (LI-COR Biosciences).

MOLT-4 = experiment: Growth inhibition (GI50), Cell Titer Blue; format: cell-based; settings: Homo sapiens; MOLT-4, Acute Lymphoblastic Leukemia; 96 hrs post-treatment
Protocol: (§1) Cell lines were cultured in RPMI-1640 medium (Thermo Scientific) supplemented with 10% heat inactivated FBS and penicillin-streptomycin at 37°C under humidified conditions and 5% CO2. All cell lines tested negative for mycoplasma. […] Compounds were added 24 hrs post-plating at the indicated concentrations. Cell counts were determined from duplicate wells 96 hrs post-treatment using the Cell Titer Blue assay in conjunction with the GloMax plate reader (Promega).

MiaPaca-2 = experiment: Growth inhibition (GI50), Cell Titer Blue; format: cell-based; settings: Homo sapiens, MIA PaCa-2; MiaPaca-2, Pancreatic Cancer; 96 hrs post-treatment
Protocol: as §1

Z138C = experiment: Growth inhibition (GI50), Cell Titer Blue; format: cell-based; settings: Homo sapiens, Mantle Cell Lymphoma, 96 hrs post-treatment
Protocol: as §1

BT-20 = experiment: Growth inhibition (GI50), Cell Titer Blue; format: cell-based; settings: Homo sapiens; BT-20, Breast Cancer; 96 hrs post-treatment
Protocol: as §1

LnCap = experiment: Growth inhibition (GI50), Cell Titer Blue; format: cell-based; settings: Homo sapiens, Prostate Cancer, 96 hrs post-treatment
Protocol: as §1

CEM = experiment: Growth inhibition (GI50), Cell Titer Blue; format: cell-based; settings: Homo sapiens, CCRF-CEM, Acute Lymphoblastic Leukemia, 96 hrs post-treatment
Protocol: as §1

HBL2 = experiment: Growth inhibition (GI50), Cell Titer Blue; format: cell-based; settings: Homo sapiens; HBL2, Mantle Cell Lymphoma; 96 hrs post-treatment
Protocol: as §1

JVM2 = experiment: Growth inhibition (GI50), Cell Titer Blue; format: cell-based; settings: Homo sapiens, JVM-2; JVM2, Mantle Cell Lymphoma; 96 hrs post-treatment
Protocol: as §1

Granta-519 and CEM cells = experiment: Cell cycle analysis, propidium iodide staining and flow cytometry; format: cell-based, human; settings: 0.5-2.0μM, 24 hours
Protocol: (§2) Figure 5 Modulation of cell cycle expression and induction of apoptosis in ON 108110-treated MCL and T-ALL cell lines (A) CEM and Granta-519 cells were treated with either DMSO or increasing concentrations of ON108110 (0.5-2.0μM) for 24 hours. Cell cycle analysis was performed using propidium iodide staining. (B) CEM, HBL-2, RS4-11 and Granta-519 cells were treated with either DMSO (vehicle) or increasing concentrations of ON108110 (0.5-2.0 μM) for 24 hours and stained with Annexin V/DAPI (C) Graphical representation of apoptosis induced as shown in B. (D) Granta-519 cells were treated with increasing concentrations of ON108110 for 24 hours. Caspase activation and viability were measured using the Caspase Glo 3/7 and Cell Titer Blue assay kits, respectively. […]
To determine cell cycle distribution, 70% ethanol fixed cells were washed with phosphate buffered saline (PBS), resuspended in PBS and incubated with RNase and propidium iodide at 37°C for 20 min. DNA content was analyzed on a FACS Calibur (BD Immunocytometry Systems) and the data analyzed using Flowjo software (Treestar). Annexin V staining was measured using the FITC Annexin V Apoptosis Detection Kit I (BD Biosciences) according to the instructions of the manufacturer except that DAPI was substituted at a concentration of […] to measure DNA content.

Granta-519 cells = experiment: Caspase Glo 3/7 caspase activation assay; format: cell-based, human; settings: increasing concentrations, 24 hours
Protocol: as §2, with “respectively. TEXT PRINTED IN THE PICTURE: (B) DMSO: 1.31; 2.34; 94.5; 1.65 | (B) ON108110: 2.21 (0.5μM); 4.32 (0.5μM); 91.1 (0.5μM); 2.37 (0.5μM); 1.64 (1.0μM); 15 (1.0μM); 80.8 (1.0μM); 2.62 (1.0μM); 4.83 (2.0μM); 60.7 (2.0μM); 28.9 (2.0μM); 5.58 (2.0μM) DOUBTS OF THE COPYIST ABOUT THIS PICTURE: Panel B: the quadrant numbers in the Annexin V/DAPI plots have no printed measure or unit.” for “respectively.”
Caspase-3/7 activation was measured using the Caspase-Glo® 3/7 kit as recommended by the manufacturer (Promega).

T1 sequence (P68400 3-335): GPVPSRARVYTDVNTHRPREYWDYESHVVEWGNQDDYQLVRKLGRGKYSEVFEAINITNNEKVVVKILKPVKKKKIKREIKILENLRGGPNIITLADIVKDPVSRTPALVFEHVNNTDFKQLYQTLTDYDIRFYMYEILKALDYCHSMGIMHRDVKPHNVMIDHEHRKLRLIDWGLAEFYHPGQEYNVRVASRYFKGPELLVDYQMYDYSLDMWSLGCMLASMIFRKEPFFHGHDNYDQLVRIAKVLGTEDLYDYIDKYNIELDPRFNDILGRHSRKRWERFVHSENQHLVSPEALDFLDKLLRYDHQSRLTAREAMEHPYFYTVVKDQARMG

## CC(=O)Oc1ccc(/C=C2\Sc3ccc(F)cc3NC2=O)cc1[N+](=O)[O-] [ON108110]
[1]
  melting temperature (Tm) of CK2α1 with compound: 64.8 °C
  shift in the Tm of CK2α1: 6.8 °C
[2]
  CDK4/6-specific RB phosphorylation (Ser780 and Ser 807/811): concentration-dependent inhibition
MOLT-4
  GI50: 0.5 µM
MiaPaca-2
  GI50: 2.6 µM
Z138C
  GI50: 0.6 µM
BT-20
  GI50: 2.5 µM
LnCap
  GI50: > 5 µM
CEM
  GI50: 0.18 µM
HBL2
  GI50: 0.25 µM
JVM2
  GI50: 0.3 µM
Granta-519 and CEM cells
  effect on cell cycle progression: rapid accumulation of the cells in the G1 phase
Granta-519 cells
  Caspase activity and PARP cleavage: increased as a function of cell death

From article PMC6340882, “Targeting protein kinase CK2 and CDK4/6 pathways with a multi-kinase inhibitor ON108110 suppresses pro-survival signaling and growth in mantle cell lymphoma and T-acute lymphoblastic leukemia” (Oncotarget, 2018)
